Data published in PubChem BioAssay (NCI).
Several values for one entry are separate records, joined by “and”; a condition that tells them apart may be missing. Equal values may be shown once.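 In this assay, cells in 96-well plates receive the compound at five concentrations for 48 hours. Endpoints are linearly interpolated between the surrounding concentrations. The concentration for 50% growth inhibition is given as GI50. TGI: concentration producing complete growth inhibition.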

What was measured:
Assay in all cases: DTP human tumour cell line panel, 48 h
MALME-3M melanoma = test system: MALME-3M melanoma
SK-OV-3 ovarian = test system: SK-OV-3 ovarian
UACC-257 melanoma = test system: UACC-257 melanoma
SN12C renal = test system: SN12C renal
U251 CNS = test system: U251 CNS
K-562 leukemia = test system: K-562 leukemia
UO-31 renal = test system: UO-31 renal
EKVX NSCLC = test system: EKVX NSCLC

## COc1cc(-c2nn(-c3cccc(NC(=O)c4cccc(C(F)(F)F)c4)c3)cc2-c2ccncc2)ccc1Cl
MALME-3M melanoma
  GI50: 1.89 µM
  TGI: > 50 µM
SK-OV-3 ovarian
  GI50: 2.29 µM
  TGI: > 50 µM
UACC-257 melanoma
  GI50: 27.9 µM
  TGI: > 50 µM
SN12C renal
  GI50: 3.31 µM
  TGI: > 50 µM
U251 CNS
  GI50: 1.62 µM
  TGI: > 50 µM
K-562 leukemia
  GI50: 1.4 µM
  TGI: > 50 µM
UO-31 renal
  GI50: 0.969 µM
  TGI: > 50 µM

## O=C1COc2c(CCNCCN(C(=O)CCNCCc3ccc(Cl)c(Cl)c3)C3CCCCC3)ccc(O)c2N1
MALME-3M melanoma
  GI50: 21.9 µM
  TGI: 39.6 µM
SK-OV-3 ovarian
  GI50: 16 µM
  TGI: 30.8 µM
UACC-257 melanoma
  GI50: 16.9 µM
  TGI: 33 µM
SN12C renal
  GI50: 14.7 µM
  TGI: 30.3 µM
U251 CNS
  GI50: 16.3 µM
  TGI: 32 µM
K-562 leukemia
  GI50: 16.2 µM
  TGI: 34.1 µM
EKVX NSCLC
  GI50: 15.4 µM
  TGI: 30 µM
UO-31 renal
  GI50: 16 µM
  TGI: 31 µM

## COc1cc([C@H]2c3cc(O)c(OC)cc3C[C@]3(O)[C@@H]2CO[C@@H]3O)ccc1O
SK-OV-3 ovarian
  TGI: > 100 µM
UACC-257 melanoma
  TGI: > 100 µM
SN12C renal
  TGI: > 100 µM
U251 CNS
  TGI: > 100 µM
K-562 leukemia
  TGI: > 100 µM
EKVX NSCLC
  TGI: > 100 µM
UO-31 renal
  TGI: > 100 µM

## COC(=O)C(NC(=O)c1ccccc1)c1ccc(OC)c(I)c1 (stereo not given)
SK-OV-3 ovarian
  GI50: 78.2 µM
  TGI: > 100 µM
UACC-257 melanoma
  GI50: 48.3 µM
  TGI: > 100 µM
SN12C renal
  GI50: > 100 µM
  TGI: > 100 µM
U251 CNS
  GI50: 65.6 µM
  TGI: > 100 µM
K-562 leukemia
  GI50: 35.6 µM
  TGI: > 100 µM
EKVX NSCLC
  GI50: 89.1 µM
  TGI: > 100 µM
UO-31 renal
  GI50: 76 µM
  TGI: > 100 µM

## CS(=O)(=O)Nc1ccc(Nc2c3ccccc3nc3cc(Cl)ccc23)cc1
MALME-3M melanoma
  GI50: 1.96 µM
  TGI: 12.3 µM
SK-OV-3 ovarian
  GI50: 1.28 µM
  TGI: 13.3 µM
UACC-257 melanoma
  GI50: 3.33 µM
  TGI: 16.7 µM
SN12C renal
  GI50: 0.654 µM
  TGI: 16.1 µM
U251 CNS
  GI50: 0.828 µM
  TGI: 13.5 µM
K-562 leukemia
  GI50: 2.11 µM
  TGI: > 48.6 µM
UO-31 renal
  GI50: 0.58 µM
  TGI: 8.96 µM

## Oc1ccc(CCNc2nc3ccccc3c3[nH]c4ccccc4c23)cc1
MALME-3M melanoma
  GI50: 1.79 µM
  TGI: 3.46 µM
SK-OV-3 ovarian
  GI50: 13.7 µM
  TGI: 27 µM
UACC-257 melanoma
  GI50: 1.94 µM
  TGI: 3.46 µM
SN12C renal
  GI50: 1.27 µM
  TGI: 2.62 µM
K-562 leukemia
  GI50: 1.91 µM
  TGI: > 100 µM
EKVX NSCLC
  GI50: 1.91 µM
  TGI: 3.95 µM

## COc1cc2nccc(Oc3ccc(NC(=O)C4(C(=O)Nc5ccc(F)cc5)CC4)cc3)c2cc1OC
MALME-3M melanoma
  GI50: > 10 µM and 2.11 µM
  TGI: > 10 µM and 9.17 µM
SK-OV-3 ovarian
  GI50: > 10 µM and 5.83 µM
  TGI: > 10 µM and 42.3 µM
UACC-257 melanoma
  GI50: > 10 µM and 4.92 µM
  TGI: > 74.7 µM
SN12C renal
  GI50: 3.97 µM and 1.02 µM
  TGI: > 54.2 µM
U251 CNS
  GI50: > 10 µM and 4.31 µM
  TGI: > 100 µM
K-562 leukemia
  GI50: 2.15 µM and 0.281 µM
  TGI: > 10 µM and 2.82 µM
EKVX NSCLC
  GI50: > 10 µM and 6.98 µM
  TGI: > 10 µM and 97.3 µM
UO-31 renal
  GI50: 4.3 µM and 2.33 µM
  TGI: > 10 µM and 12.7 µM

## N#Cc1c(N)nc(N2CCOCC2)c(C#N)c1-c1ccc(Cl)cc1Cl
SK-OV-3 ovarian
  GI50: 22.2 µM
  TGI: 91.1 µM
UACC-257 melanoma
  GI50: 18 µM
  TGI: 62.4 µM
SN12C renal
  GI50: 16.1 µM
  TGI: 43.3 µM
U251 CNS
  GI50: 17.4 µM
  TGI: 42.4 µM
K-562 leukemia
  GI50: 23.9 µM
  TGI: 99.1 µM
EKVX NSCLC
  GI50: 20.1 µM
  TGI: 64.3 µM
UO-31 renal
  GI50: 3.26 µM
  TGI: 15.8 µM

## O=c1cccccc1[O-].O=c1cccccc1[O-].O=c1cccccc1[O-].[Dy+3]
MALME-3M melanoma
  TGI: > 100 µM
SK-OV-3 ovarian
  TGI: 98.3 µM
UACC-257 melanoma
  TGI: > 100 µM
SN12C renal
  GI50: 17.7 µM
  TGI: > 100 µM
U251 CNS
  GI50: 24.8 µM
  TGI: > 100 µM
K-562 leukemia
  TGI: > 100 µM
EKVX NSCLC
  TGI: > 100 µM
UO-31 renal
  TGI: > 100 µM

## CCc1c[nH]c2ncnc(N3CC[C@](N)(CNC(=O)c4ccc(F)cc4F)C3)c12
MALME-3M melanoma
  GI50: 3.4 µM
  TGI: 39.5 µM
SK-OV-3 ovarian
  GI50: 0.973 µM
  TGI: > 62.1 µM
UACC-257 melanoma
  GI50: 9.22 µM
  TGI: > 100 µM
SN12C renal
  GI50: 24.2 µM
  TGI: > 100 µM
U251 CNS
  GI50: 0.76 µM
  TGI: > 100 µM
K-562 leukemia
  GI50: > 54.1 µM
  TGI: > 100 µM
UO-31 renal
  GI50: 1.52 µM
  TGI: 47.6 µM

## c1csc(-c2[nH]nc3c2CCc2ccccc2-3)c1
MALME-3M melanoma
  GI50: 19.8 µM
  TGI: 50.4 µM
SK-OV-3 ovarian
  GI50: 24.6 µM
  TGI: 65.6 µM
UACC-257 melanoma
  GI50: 19.8 µM
  TGI: 49.1 µM
SN12C renal
  GI50: 14.8 µM
  TGI: 30.2 µM
U251 CNS
  GI50: 11.6 µM
  TGI: 26.3 µM
K-562 leukemia
  GI50: 22 µM
  TGI: 68.6 µM
UO-31 renal
  GI50: 6.4 µM
  TGI: 34.9 µM

## O=C(Nc1cccc(C(F)(F)F)c1)Nc1cc(S(=O)(=O)NC2CC2)ccc1-c1ccsc1
MALME-3M melanoma
  GI50: 3.39 µM
  TGI: 11.1 µM
SK-OV-3 ovarian
  GI50: 4.39 µM
  TGI: 17 µM
UACC-257 melanoma
  GI50: 3.84 µM
  TGI: 14.4 µM
SN12C renal
  GI50: 4.33 µM
  TGI: 18.3 µM
U251 CNS
  GI50: 3.78 µM
  TGI: 13.6 µM
K-562 leukemia
  GI50: 3.42 µM
  TGI: 13.5 µM
EKVX NSCLC
  GI50: 2.45 µM
  TGI: 12.2 µM
UO-31 renal
  GI50: 3.3 µM
  TGI: 13.3 µM

## CC(C)c1nc(Cl)c(Cl)c(Cl)n1
MALME-3M melanoma
  TGI: 19 µM
SK-OV-3 ovarian
  TGI: 37.9 µM
UACC-257 melanoma
  TGI: 17.8 µM
SN12C renal
  TGI: 16.9 µM
U251 CNS
  TGI: 12.8 µM
K-562 leukemia
  TGI: > 100 µM
EKVX NSCLC
  TGI: 29.1 µM
UO-31 renal
  TGI: 2.66 µM

## O=C(COC(=O)[C@H](C[Se][Se]C[C@H](NC(=O)c1ccc(Br)cc1F)C(=O)OCC(=O)c1ccc(F)cc1)NC(=O)c1ccc(Br)cc1F)c1ccc(F)cc1
MALME-3M melanoma
  GI50: 0.639 µM
  TGI: 1.64 µM
SK-OV-3 ovarian
  GI50: 0.415 µM
  TGI: 1.31 µM
UACC-257 melanoma
  GI50: 1.82 µM
  TGI: 4.39 µM
SN12C renal
  GI50: 1.27 µM
  TGI: 2.98 µM
U251 CNS
  GI50: 0.696 µM
  TGI: 1.92 µM
K-562 leukemia
  GI50: 2.83 µM
  TGI: > 26.4 µM
EKVX NSCLC
  GI50: 0.517 µM
  TGI: 1.52 µM
UO-31 renal
  GI50: 1.11 µM
  TGI: 2.79 µM

## CC(C)C12CCC3(CCC4C(C)(C(=O)O)CCCC4(C)C3C1)C(CN)C2 (stereo not given)
MALME-3M melanoma
  TGI: > 100 µM
SK-OV-3 ovarian
  TGI: > 100 µM
UACC-257 melanoma
  TGI: > 100 µM
SN12C renal
  TGI: 43.3 µM
U251 CNS
  TGI: > 100 µM
EKVX NSCLC
  TGI: 62 µM
UO-31 renal
  TGI: > 100 µM

## COc1cc2c(cc1OCCCN1CCN(CCCn3c4ccccc4c4ccccc43)CC1)N=C[C@@H]1CCCN1C2=O
MALME-3M melanoma
  GI50: 0.102 µM
  TGI: 0.432 µM
SK-OV-3 ovarian
  GI50: 0.32 µM
  TGI: 1.27 µM
UACC-257 melanoma
  GI50: 0.209 µM
  TGI: 0.461 µM
SN12C renal
  GI50: 0.243 µM
  TGI: 1.51 µM
U251 CNS
  GI50: 0.0985 µM
  TGI: 1.2 µM
EKVX NSCLC
  GI50: 0.268 µM
  TGI: 0.988 µM
UO-31 renal
  GI50: 0.174 µM
  TGI: 0.491 µM

## COc1ccc(C[C@H](N)C(=O)N[C@@H]2[C@@H](CO)OC(n3cnc4c(N(C)C)ncnc43)[C@@H]2O)cc1 (stereo not given in full)
MALME-3M melanoma
  GI50: 0.637 µM
  TGI: 1.39 µM
SK-OV-3 ovarian
  TGI: 1.5 µM
UACC-257 melanoma
  GI50: 0.321 µM
  TGI: 1.08 µM
SN12C renal
  TGI: 1.31 µM
U251 CNS
  GI50: 0.136 µM
  TGI: 0.507 µM
K-562 leukemia
  GI50: 0.293 µM
  TGI: 1.46 µM
EKVX NSCLC
  GI50: 0.614 µM
  TGI: 2.55 µM
UO-31 renal
  GI50: 1.56 µM
  TGI: 6.57 µM
